Data published in patent US20090010891A1, “Sepsis Treatment Agent” (Toa Pharmaceutical Co., Ltd., priority 2007, published 2009).

System: sepsis patients
Assay: treatment course of sepsis in blood culture positive patients
Format: in vivo, human
Details: observation for 1 year; for Cured / Deaths: number of cases, Bio3 1 g 3 times a day where given
Experimental: The sepsis treatment agent was administered 3 times a day at 1 g each time using a live bacteria formulation of a mix of the three bacteria. The patients were hospitalized in a psychiatric hospital. The patients were blood culture positive which is a predictor for bacterial translocation. In 4 cases, imipenem/cilastatin (IPM/CS) was administered, and in 4 cases, latamoxef (LMOX) was given. During the observation period, CRP (C reactive protein) increased slightly, and E. coli and enterococcus and the like were detected by culturing blood. After observation for 1 year, two cases died from both groups, and two cases were cured.

Row | Structure (SMILES) | Cured | Deaths | Cured (listed as latamoxef) | Deaths (listed as latamoxef) | death rate (%)
1 | CO[C@@]1(NC(=O)C(C(=O)O)c2ccc(O)cc2)C(=O)N2C(C(=O)O)=C(CSc3nnnn3C)CO[C@@H]21 (some centres unmarked) [Latamoxef, latamoxef] | 2 | 2 | two | two | 50%
2 | C[C@@H](O)[C@H]1C(=O)N2C(C(=O)O)=C(SCCN=CN)C[C@H]12 [Imipenem, imipenem/cilastatin] | 2 | 2 | – | – | 50%
